# How the values were obtained:
# [1] = tested on: clinically isolated strains; assay: Test Examples 1 to 3 with other β-lactamase-inhibiting penicillins or cephalosporins; format: cell-based; conditions: in place of Methicillin or Cloxacillin
# Description: (§1) Heart Infusion agar containing a prescribed amount of Methicillin sodium or T-1220 was inoculated with the test bacterium at a rate of about 10^8 cells/ml. After incubation for 18 hours at 37° C., the growth of the test bacterium was inspected.
# The β-lactamase activity was assayed by the iodometric assay method at 30° C., following the procedure of Perret [C.J. Perret, "Iodometric Assay of Penicillinase," Nature, 174, 1012-1013 (1954)], except that a 0.1 molar phosphate buffer solution (pH 7.0) was used in place of the 0.2 molar phosphate buffer solution (pH 6.5). One unit of β-lactamase activity corresponds to the quantity of β-lactamase which decomposes 1 μmole/hour of T-1220 in a 0.1 molar phosphate buffer solution (pH 7.0) containing 8 m moles of the substrate.
# A pathogenic bacterium was inoculated at a rate of about 10^8 cells/ml into a Heart Infusion broth containing T-1220 (200 μg/ml) alone, T-1220 (200 μg/ml) plus Methicillin sodium (200 μg/ml), T-1220 (200 μg/ml) plus Cloxacillin sodium (200 μg/ml), Methicillin sodium (200 μg/ml) alone, or Cloxacillin sodium (200 μg/ml) alone. The inoculated broth was incubated at 37° C. and the number of live cells in the culture broth was determined at predetermined time intervals.
# The test results described in the foregoing Test Examples 1 to 3 are typical of the pharmacological activity of the antibacterial composition of this invention.
# [2] = tested on: Escherichia coli TK-3 strain; assay: Minimum inhibitory concentration; format: cell-based; conditions: TK3STRAIN
# [3] = tested on: Pseudomonas aeruginosa S-12 strain; assay: Minimum inhibitory concentration; format: cell-based; conditions: S12STRAIN
# [4] = tested on: Escherichia coli TK-3 strain; assay: Growth-inhibition test on clinically isolated strain (Heart Infusion agar, about 10^8 cells/ml, 18 hours at 37° C.); format: cell-based; set-up: key: (+) means that the test bacterium grew; (-) means that the test bacterium did not grow
# Description: as §1
# [5] = tested on: Pseudomonas aeruginosa S-12 strain; assay: as above; format: cell-based; set-up: key: (+) means that the test bacterium grew; (-) means that the test bacterium did not grow
# Description: as §1
# K. pneumoniae Y-53 = assay: Effect of combined use on experimental infection in mice (protection effect); format: in vivo, ICR mice infected with K. pneumoniae; conditions: K. pneumoniae Y-53, 1.0 × 10^7 cells/mouse intraperitoneal; subcutaneous, one and two hours after inoculation
# Source text: (§2) Male mice (5 mice per group) of the ICR strain, 4 weeks of age, were peritoneally inoculated with the prescribed number of pathogenic bacteria suspended in 5% mucin. After one hour and two hours following the inoculation, test preparations shown in Table 4 were subcutaneously administered to examine the protection effect.
# P. aeruginosa S-111 = assay: as above; format: in vivo, ICR mice infected with P. aeruginosa; conditions: P. aeruginosa S-111, 1.6 × 10^6 cells/mouse intraperitoneal; subcutaneous, one and two hours after inoculation
# Source text: as §2
# [6] = T-1220 0 + methicillin sodium 50 μg/ml
# [7] = T-1220 0 + methicillin sodium 100 μg/ml
# [8] = T-1220 0 + methicillin sodium 200 μg/ml
structure (smiles),measurement,setting,value
CO[C@@]1(NC(=O)Cc2cccs2)C(=O)N2C(C(=O)O)=C(COC(N)=O)CS[C@@H]21 [Cefoxitin],results in the Test Examples when used as the β-lactamase-inhibiting penicillin or cephalosporin,[1],results similar to those obtained with Methicillin and Cloxacillin
Cc1onc(-c2ccccc2Cl)c1C(=O)N[C@@H]1C(=O)N2[C@@H]1SC(C)(C)[C@@H]2C(=O)O [Cloxacillin sodium],MIC,[2],> 3200 µg/mL
same,MIC,[3],> 3200 µg/mL
Cc1onc(-c2c(Cl)cccc2Cl)c1C(=O)N[C@@H]1C(=O)N2[C@@H]1SC(C)(C)[C@@H]2C(=O)O [Dicloxacillin],results in the Test Examples when used as the β-lactamase-inhibiting penicillin or cephalosporin,[1],results similar to those obtained with Methicillin and Cloxacillin
Cc1onc(-c2c(F)cccc2Cl)c1C(=O)N[C@@H]1C(=O)N2[C@@H]1SC(C)(C)[C@@H]2C(=O)O [Flucloxacillin],results in the Test Examples when used as the β-lactamase-inhibiting penicillin or cephalosporin,[1],results similar to those obtained with Methicillin and Cloxacillin
COc1cccc(OC)c1C(=O)N[C@@H]1C(=O)N2[C@@H]1SC(C)(C)[C@@H]2C(=O)O [Methicillin sodium],growth of the test bacterium,[4]; [6],+
same,growth of the test bacterium,[4]; [7],+
same,growth of the test bacterium,[4]; [8],+
same,growth of the test bacterium,[4]; T-1220 0 + methicillin sodium 400 μg/ml,+
same,growth of the test bacterium,[4]; T-1220 0 + methicillin sodium 800 μg/ml,+
same,growth of the test bacterium,[4]; T-1220 0 + methicillin sodium 1600 μg/ml,+
same,growth of the test bacterium,[4]; T-1220 0 + methicillin sodium 3200 μg/ml,+
same,growth of the test bacterium,[5]; T-1220 0 + methicillin sodium 3.13 μg/ml,+
same,growth of the test bacterium,[5]; T-1220 0 + methicillin sodium 6.25 μg/ml,+
same,growth of the test bacterium,[5]; T-1220 0 + methicillin sodium 12.5 μg/ml,+
same,growth of the test bacterium,[5]; T-1220 0 + methicillin sodium 25 μg/ml,+
same,growth of the test bacterium,[5]; [6],+
same,growth of the test bacterium,[5]; [7],+
same,growth of the test bacterium,[5]; [8],+
same,MIC,[2],> 3200 µg/mL
same,MIC,[3],> 3200 µg/mL
same,ED50 (protection effect),K. pneumoniae Y-53,> 50 mg/mouse
same,ED50 (protection effect),P. aeruginosa S-111,> 50 mg/mouse
Cc1onc(-c2ccccc2)c1C(=O)N[C@@H]1C(=O)N2[C@@H]1SC(C)(C)[C@@H]2C(=O)O [Oxacillin],results in the Test Examples when used as the β-lactamase-inhibiting penicillin or cephalosporin,[1],results similar to those obtained with Methicillin and Cloxacillin
"CCN1CCN(C(=O)N[C@@H](C(=O)N[C@@H]2C(=O)N3[C@@H]2SC(C)(C)[C@@H]3C(=O)O)c2ccccc2)C(=O)C1=O [T-1220, sodium 6-[D(-)-α-(4-ethyl-2,3-dioxo-1-piperazinylcarbonylamino)phenylacetamido]penicillanate]",growth of the test bacterium,[4]; T-1220 50 + methicillin sodium 0 μg/ml,+
same,growth of the test bacterium,[4]; T-1220 100 + methicillin sodium 0 μg/ml,+
same,growth of the test bacterium,[4]; T-1220 200 + methicillin sodium 0 μg/ml,+
same,growth of the test bacterium,[4]; T-1220 400 + methicillin sodium 0 μg/ml,+
same,growth of the test bacterium,[4]; T-1220 800 + methicillin sodium 0 μg/ml,+
same,growth of the test bacterium,[4]; T-1220 1600 + methicillin sodium 0 μg/ml,+
same,growth of the test bacterium,[4]; T-1220 3200 + methicillin sodium 0 μg/ml,+
same,growth of the test bacterium,"[5]; T-1220 50 μg/ml, methicillin sodium concentration not given",+
same,growth of the test bacterium,"[5]; T-1220 100 μg/ml, methicillin sodium concentration not given",+
same,growth of the test bacterium,"[5]; T-1220 200 μg/ml, methicillin sodium concentration not given",+
same,growth of the test bacterium,"[5]; T-1220 400 μg/ml, methicillin sodium concentration not given",+
same,growth of the test bacterium,"[5]; T-1220 800 μg/ml, methicillin sodium concentration not given",+
same,growth of the test bacterium,"[5]; T-1220 1600 μg/ml, methicillin sodium concentration not given",+
same,growth of the test bacterium,"[5]; T-1220 3200 μg/ml, methicillin sodium concentration not given",+
same,MIC,[2],> 3200 µg/mL
same,MIC,[3],> 3200 µg/mL
same,ED50 (protection effect),K. pneumoniae Y-53,> 50 mg/mouse
same,ED50 (protection effect),P. aeruginosa S-111,> 50 mg/mouse
